Like-named read-outs stand apart in the source and are kept apart here.
Experiments:
[1] = tested on: E. coli ATCC 25922 and colistin-resistant E. coli clinical isolates
Protocol: (§1) The MICs of BP203 and MAP-0403 J-2 against clinically colistin-resistant E. coli and K. pneumoniae isolates were determined using the broth microdilution method, according to CLSI recommendations. Briefly, the peptides were subjected to serial dilution in cation-adjusted Mueller-Hinton broth (CAMHB) and added to a 96-well microtiter plate (Wuxi NEST Biotechnology, Wuxi, China). Subsequently, bacterial suspensions from freshly mid-log phase cultures were diluted to 10^6 CFU/mL with CAMHB, and introduced to each well containing the peptides.

[2] = tested on: K. pneumoniae ATCC BAA-1706 and colistin-resistant K. pneumoniae clinical isolates
Protocol: as §1

[3] = at 150 μM (~300 μg/mL); cited from earlier work
Text: The stability of AMPs is crucial for storage and applications. Temperature and pH are critical parameters impacting AMP stability. In addition, the good stability of AMPs to physiological salts and serum has been considered a desirable property for clinical applications. In this study, BP203 and MAP-0403 J-2 retained antibacterial activity under elevated temperatures, various pH conditions, and in the presence of physiological salts and serum environment. […] The hemolytic activity of BP203 at 150 μM (~300 μg/mL) wa ...

[4] = tested on: K. pneumoniae ATCC BAA-1706
Protocol: as §1
(§2) The antibacterial activity of BP203 and MAP-0403 J-2 was evaluated concerning their response to temperature, pH, serum, and salt ions using the MIC assay, following the previously mentioned procedure. The MIC values of peptides were determined against E. coli ATCC29522 and K. pneumoniae ATCC BAA-1706. […] For the pH stability assay, both peptides were incubated in buffers with different pH values (100 mM buffers: glycine-HCl buffer (pH 2.0), sodium acetate buffer (pH 4.0), sodium phosphate buffer (pH 6.0), Tris-HCl buffer (pH 8.0), and glycine-NaOH buffer (pH 10.0)) for 1 h at 37°C. […] For serum stability assay, both peptides were exposed to 25% and 50% fetal bovine serum (FBS) for 1 h at 37°C, followed by a heat activation step for 30 min at 60°C. Afterward, the peptide solutions were serially diluted and MIC was subsequently determined. For the salt stability assay, each peptide was treated in MHB supplemented with different salts at their physiological concentrations; NaCl (100, 150, and 200 mM), MgCl2 (0.5, 1 and 2 mM), and FeCl3 (1, 4 and 8 mM). The serial dilutions of peptides were incubated with tested strains for MIC testing. The MICs were observed after 20–24 h of incubation at 37°C.

E. coli ATCC 25922 [5] = tested on: E. coli ATCC 25922
Protocol: as §1, §2

E. coli ATCC 25922 [6] = tested on: E. coli ATCC 25922; remark: listed apart in the source
Protocol: as §1
as §2, with “For the salt stability assay, each peptide was treated in MHB supplemented with different salts at their physiological concentrations; NaCl (100, 150, and 200 mM), MgCl2 (0.5, 1 and 2 mM), and FeCl3 (1, 4 and 8 mM).” left out

[7] = 25% fetal bovine serum, 1 h at 37 °C
[8] = 50% fetal bovine serum, 1 h at 37 °C
[9] = pH 2, 100 mM glycine-HCl buffer, 1 h at 37 °C, neutralized
[10] = pH 4, 100 mM sodium acetate buffer, 1 h at 37 °C, neutralized
[11] = pH 6, 100 mM sodium phosphate buffer, 1 h at 37 °C, neutralized
[12] = pH 8, 100 mM Tris-HCl buffer, 1 h at 37 °C, neutralized
[13] = pH 10, 100 mM glycine-NaOH buffer, 1 h at 37 °C, neutralized
[14] = peptide incubated 1 h at 25 °C (control)

CC[C@H](C)[C@H](NC(=O)[C@H](CCCCN)NC(=O)[C@H](CCCCN)NC(=O)[C@H](Cc1ccccc1)NC(=O)[C@H](CC(C)C)NC(=O)[C@H](CCCCN)NC(=O)[C@@H](N)CCCCN)C(=O)N[C@@H](CC(C)C)C(=O)N[C@@H](CCCNC(=N)N)C(=O)N[C@@H](Cc1ccc(O)cc1)C(=O)N[C@@H](CC(C)C)C(N)=O [BP203]
8 µg/mL: MBC ([1]; EC-02) | MIC ([1]; EC-02) | MBC ([1]; EC-05) | MIC ([1]; EC-05) | MBC ([1]; EC-07) | MIC ([1]; EC-07) | MBC ([1]; EC-10) | MIC ([1]; EC-10) | MIC after FBS treatment (E. coli ATCC 25922 [5]; [8])
31%: Hemolytic activity [3]
4 μg/mL: MIC after pH treatment [4, 9] | MIC after pH treatment [4, 10] | MIC after pH treatment [4, 11] | MIC after pH treatment ([4]; pH 7 (control)) | MIC after pH treatment [4, 12] | MIC after pH treatment [4, 13] | MIC after pH treatment (E. coli ATCC 25922 [5]; [9]) | MIC after pH treatment (E. coli ATCC 25922 [5]; [10]) | MIC after pH treatment (E. coli ATCC 25922 [5]; [11]) | MIC after pH treatment (E. coli ATCC 25922 [5]; pH 7 (control)) | MIC after pH treatment (E. coli ATCC 25922 [5]; [12]) | MIC after pH treatment (E. coli ATCC 25922 [5]; [13]) | MIC in the presence of physiological salts (E. coli ATCC 25922 [6]; Control, 0) | MIC in the presence of physiological salts (E. coli ATCC 25922 [6]; FeCl3 1 μM) | MIC in the presence of physiological salts (E. coli ATCC 25922 [6]; FeCl3 4 μM) | MIC in the presence of physiological salts (E. coli ATCC 25922 [6]; FeCl3 8 μM) | MIC in the presence of physiological salts (E. coli ATCC 25922 [6]; MgCl2 0.5 mM) | MIC in the presence of physiological salts (E. coli ATCC 25922 [6]; MgCl2 1 mM)
2 µg/mL: MBC ([1]; EC-01) | MIC ([1]; EC-01) | MBC ([1]; EC-03) | MIC ([1]; EC-03) | MIC ([1]; EC-04) | MBC ([1]; EC-06) | MIC ([1]; EC-06) | MBC ([1]; EC-09) | MIC ([1]; EC-09)
8 μg/mL: MIC in the presence of physiological salts (E. coli ATCC 25922 [6]; MgCl2 2 mM) | MIC in the presence of physiological salts (E. coli ATCC 25922 [6]; NaCl 100 mM)
256 µg/mL: MBC ([2]; KP-02) | MIC ([2]; KP-02) | MBC ([2]; KP-06) | MIC ([2]; KP-06) | MBC ([2]; KP-08) | MIC ([2]; KP-08)
2 to 16 µg/mL: MICs against colistin-resistant E. coli clinical isolates ([1]; range over ten isolates)
> 128 µg/mL: MIC for the majority of (most) colistin-resistant K. pneumoniae isolates [2]
16 to 512 µg/mL: MIC against colistin-resistant K. pneumoniae clinical isolates ([2]; range over ten isolates)
16 µg/mL: MBC ([1]; EC-08) | MIC ([1]; EC-08) | MBC ([2]; KP-01) | MIC ([2]; KP-01)
32 µg/mL: MBC ([2]; KP-05) | MIC ([2]; KP-05)
4 µg/mL: MBC ([1]; E. coli ATCC 25922) | MIC ([1]; E. coli ATCC 25922) | MBC ([1]; EC-04) | MBC ([2]; K. pneumoniae ATCC BAA-1706) | MIC ([2]; K. pneumoniae ATCC BAA-1706) | MIC after FBS treatment ([4]; 0% FBS (control)) | MIC after FBS treatment [4, 7] | MIC after FBS treatment [4, 8] | MIC after temperature treatment [4, 14] | MIC after temperature treatment ([4]; peptide incubated 1 h at 37 °C) | MIC after temperature treatment ([4]; peptide incubated 1 h at 50 °C) | MIC after temperature treatment ([4]; peptide incubated 1 h at 70 °C) | MIC after temperature treatment ([4]; peptide incubated 1 h at 90 °C) | MIC after FBS treatment (E. coli ATCC 25922 [5]; 0% FBS (control)) | MIC after FBS treatment (E. coli ATCC 25922 [5]; [7]) | MIC after temperature treatment (E. coli ATCC 25922 [5]; [14]) | MIC after temperature treatment (E. coli ATCC 25922 [5]; peptide incubated 1 h at 37 °C) | MIC after temperature treatment (E. coli ATCC 25922 [5]; peptide incubated 1 h at 50 °C) | MIC after temperature treatment (E. coli ATCC 25922 [5]; peptide incubated 1 h at 70 °C) | MIC after temperature treatment (E. coli ATCC 25922 [5]; peptide incubated 1 h at 90 °C)
512 µg/mL: MBC ([2]; KP-04) | MIC ([2]; KP-04) | MBC ([2]; KP-09) | MIC ([2]; KP-09) | MBC ([2]; KP-10) | MIC ([2]; KP-10)
16 μg/mL: MIC in the presence of physiological salts (E. coli ATCC 25922 [6]; NaCl 150 mM) | MIC in the presence of physiological salts (E. coli ATCC 25922 [6]; NaCl 200 mM)
128 µg/mL: MBC ([2]; KP-03) | MIC ([2]; KP-03) | MBC ([2]; KP-07) | MIC ([2]; KP-07)

Reference: PMC10653547, “Synergistic effect of two antimicrobial peptides, BP203 and MAP-0403 J-2 with conventional antibiotics against colistin-resistant Escherichia coli and Klebsiella pneumoniae clinical isolates” (PLOS ONE, 2023)
